{
  "source": "patent US9801388B2",
  "about": "“Method for a pesticide having an insecticide, acaricide and nematicide action based on isoquinoline alkaloids and flavonoids” (PROMOTORA TECNICA INDUSTRIAL, S.A. DE C.V., priority 2011, dated 2017)",
  "key": {"[1]": {"tested_on": "insects of the genus Bemisia", "assay": "In vitro (laboratory) evaluation of effectiveness against Bemisia", "assay_type": "in vivo", "details": "dose 2 mL/L (recommended by the manufacturer), 24 hours after application", "description": "In the laboratory assay both products were diluted to 5 mL of the formulation in 1 L of distilled water, and they were applied against insects of the genus Bemisia. To compare the effectiveness of the formulation distilled water was also applied as an absolute control and bifenthrin ([1a,3a-(Z)]-(±)-(2methyl[1,1′-biphenyl]-3-il)methyl-3-(2-cloro-3,3,3-trifluorine-1-propenyl-2,2-dimethyl cyclopropanecarboxylate) was applied as a commercial control. The application of the formulation was performed in laboratory conditions using devices to keep the specimens under observation. The effectiveness evaluation was carried out 24 hours after the application.\nThe experimental unit consisted of four devices that were kept at 26 (±2° C.). Three repetitions of each evaluation were performed.\nIn Table VI, the effectiveness observed in insects of the genus Bemisia after 24 hours of observation with each of the treatments is detailed. The dose of the commercial control (Bifenthrin) was that recommended by the manufacturer."}, "[2]": {"tested_on": "larvae of genus Plutella", "assay": "Field evaluation of effectiveness against Plutella larvae in Brassica oleracea crop", "assay_type": "in vivo", "details": "dose 100 mL/Ha, fourth day after application", "description": "With the Brassica oleracea crop assessments of the control of larvae of the Plutella genus was performed, the results of this assessment are shown in Table V. The assessment was carried out the fourth day after the application."}, "[3]": {"tested_on": "mammals", "details": "toxic for mammals; cited from earlier work"}, "[4]": {"tested_on": "nematodes of the genus Meloidogyne", "assay": "In vitro evaluation of effectiveness against Meloidogyne nematodes", "assay_type": "in vivo", "details": "dilution 1:200, after 48 hours", "description": "The nematicide capacity of formulation 2 was evaluated; a satisfactory percentage after 48 hours was obtained."}, "[5]": {"tested_on": "Diaphorina sp adults", "assay": "Field evaluation of effectiveness against Diaphorina sp adults in Citrus sp. crop", "assay_type": "in vivo", "details": "dose 5 mL/L", "description": "(§1) In accordance with the effectiveness percentages mentioned above, both of the developed products show a significant effectiveness to control insects belonging to the genus Bemisia. The evaluation was carried out four days after the application. The formulations were also applied to observe their effectiveness in the crop of Citrus sp. in controlling two pest species: Diaphorina sp. (adult and nymph) and mites of the genus Polyphagotarsonemus.\n(§2) Table III describes the effectiveness of the above mentioned treatments in controlling Diaphorina sp. nymphs."}, "[6]": {"tested_on": "Diaphorina sp nymphs", "assay": "Field evaluation of effectiveness against Diaphorina sp nymphs in Citrus sp. crop", "assay_type": "in vivo", "details": "dose 5 mL/L", "description": "as §1, §2"}, "[7]": {"tested_on": "humans", "details": "toxic for humans; cited from earlier work"}},
  "data": [
    {"compound": "Cc1c(COC(=O)[C@@H]2[C@H](/C=C(\\Cl)C(F)(F)F)C2(C)C)cccc1-c1ccccc1", "note": "(racemic) [Bifenthrin, [1a,3a-(Z)]-(±)-(2methyl[1,1′-biphenyl]-3-il)methyl-3-(2-cloro-3,3,3-trifluorine-1-propenyl-2,2-dimethyl cyclopropanecarboxylate]", "values": [
      {"measurement": "Effectiveness %", "setting": "[1]", "result": 97.18, "unit": "%"}
    ]},
    {"compound": "Spinosad", "values": [
      {"measurement": "Effectiveness %", "setting": "[2]", "result": 52.8, "unit": "%"}
    ]},
    {"compound": "COc1ccc(C(=O)O[C@H]2CC[C@@]3(C)[C@@H]4CC[C@H]5[C@]6(O)C[C@H](O)[C@@]7(O)[C@@H](CN8C[C@@H](C)CC[C@H]8[C@@]7(C)O)[C@]6(O)C[C@@]53O[C@]24O)cc1OC", "note": "[veratridine]", "values": [
      {"measurement": "DL50", "setting": "[3]", "result": 13, "unit": "mg/kg"}
    ]},
    {"compound": "CNC(=O)Oc1cccc2c1OC(C)(C)C2", "note": "[Carbofuran]", "values": [
      {"measurement": "Effectiveness %", "setting": "[4]", "result": 100, "unit": "%"}
    ]},
    {"compound": "C/C=C(/C)C(=O)O[C@H]1CC[C@@]2(C)[C@@H]3CC[C@H]4[C@]5(O)C[C@H](O)[C@@]6(O)[C@@H](CN7C[C@@H](C)CC[C@H]7[C@@]6(C)O)[C@]5(O)C[C@@]42O[C@]13O", "note": "[cevadine]", "values": [
      {"measurement": "DL50", "setting": "[3]", "result": 13, "unit": "mg/kg"}
    ]},
    {"compound": "CNC(=O)CSP(=S)(OC)OC", "note": "[Dimethoate]", "values": [
      {"measurement": "Effectiveness %", "setting": "[5]", "result": 100, "unit": "%"},
      {"measurement": "Effectiveness %", "setting": "[6]", "result": 100, "unit": "%"}
    ]},
    {"compound": "C=C(C)[C@H]1Cc2c(ccc3c2O[C@@H]2COc4cc(OC)c(OC)cc4[C@@H]2C3=O)O1", "note": "[Rotenone]", "values": [
      {"measurement": "DL50", "setting": "[7]", "result": 132, "unit": "mg/kg"}
    ]}
  ]
}
